# From US20250188110A1, “SPECIFIC SMALL MOLECULE INHIBITORS THAT BLOCK KMT9 METHYLTRANSFERASE ACTIVITY AND FUNCTION” (ALBERT-LUDWIGS-UNIVERSITÄT FREIBURG, priority 2021, published 2025)
# Assays:
# KMT9 [1] = biological target: T1, KMT9 (Homo sapiens, UniProt Q9Y5N5); assay: KMT9 methyltransferase inhibition assay, 3H-SAM scintillation (entries 1-154); format: biochemical; conditions: entries 1-154: 3H-SAM assay, 25 nM KMT9, 5 μM ETF1
# T1 sequence (Q9Y5N5 1-214): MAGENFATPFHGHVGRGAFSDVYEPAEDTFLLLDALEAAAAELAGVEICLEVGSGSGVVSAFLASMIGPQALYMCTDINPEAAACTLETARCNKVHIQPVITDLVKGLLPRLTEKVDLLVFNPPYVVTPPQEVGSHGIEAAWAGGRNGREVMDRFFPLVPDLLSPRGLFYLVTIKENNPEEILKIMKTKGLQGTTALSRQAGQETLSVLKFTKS
# T1 sequence (Q9UI30 1-120 isoform Q9UI30-2 partner): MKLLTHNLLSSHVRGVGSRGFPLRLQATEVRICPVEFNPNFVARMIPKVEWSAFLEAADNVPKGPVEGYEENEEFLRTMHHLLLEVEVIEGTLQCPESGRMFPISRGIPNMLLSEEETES
# Summary of the method: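 Final 25 nM KMT9, 5 μM ETF1 (residues 140-275), 0.3 μM 3H-SAM plus 0.7 μM SAM in pH 8.5 BTP buffer, 2 h at 30° C. TCA-quenched, filter-washed, methylation counted by scintillation; % inhibition vs DMSO and no-enzyme controls, IC50 from four-parameter fit.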
# KMT9 [2] = biological target: T1, KMT9; assay: Microscale thermophoresis (MST) KMT9 binding; conditions: microscale thermophoresis, His-tag labelled KMT9 (20 nM); read-out: MST
# Summary of the method: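 His-tagged KMT9 (20 nM), RED-Tris-NTA labelled, titrated with varying compound concentrations in 25 mM HEPES pH 7.5, 100 mM NaCl, 1 mM DTT, 0.05% Tween. MST at 40% MST and 100% LED power, Nano-RED excitation; Kd binned A ≤10 nM, B 10–100, C 100–1000, D >1000 nM.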
# KMT9 [3] = biological target: T1, KMT9; assay: KMT9 thermal shift assay (SyproOrange); format: binding; conditions: ΔTm; 500 µM compound, 2 μM KMT9, 5X SO; read-out: Thermal shift
# Summary of the method: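 Recombinant KMT9 was incubated with compound and SyproOrange at 25° C in 50 mM BTP pH 8.5, 1 mM MgCl2, 1 mM DTT. It was then heated from 20° C to 95° C at 1° C per 15 s with fluorescence read each step. Tm came from a Boltzmann sigmoidal fit; ΔTm relative to DMSO control, binned in 5 K ranges.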
Structure (SMILES),IC50 (KMT9 [1]) [nM],Kd (KMT9 [2]) [nM],ΔTm at 500 µM (KMT9 [3]) [°C]
"CNc1ncnc2c1ccn2[C@@H]1C[C@H](CNC[C@H]2CCCNC2)[C@@H](O)[C@H]1O [436 (308), (1R,2S,3R,5R)-3-[4-(Methylamino)pyrrolo[2,3-d]pyrimidin-7-yl]-5-({[(3S)-piperidin-3-ylmethyl]amino}methyl) cyclopentane-1,2-diol]",> 10000,> 1000,≤ 10
"CCc1cn([C@@H]2C[C@H](CNCCCNCCc3ccccc3)[C@@H](O)[C@H]2O)c2ncnc(Cl)c12 [Compound 632, (1R,2S,3R,5R)-3-(4-chloro-5-ethyl-7H-pyrrolo[2,3-d]pyrimidin-7-yl)-5-(((3-(phenethylamino)propyl)amino)methyl)cyclopentane-1,2-diol]",> 10000,> 1000,≤ 10
"Nc1ncnc2c1ncn2[C@@H]1O[C@H](C(=O)NC2CCN(CCc3ccccc3)CC2)[C@@H](O)[C@H]1O [325 (228), (2S,3S,4R,5R)-5-(6-amino-9H-purin-9-yl)-3,4-dihydroxy-N-(1-phenethylpiperidin-4-yl) tetrahydrofuran-2-carboxamide]",> 10000,> 1000,≤ 10
"C=Cc1cn([C@@H]2C[C@H](CNCCCNCCc3ccccc3)[C@@H](O)[C@H]2O)c2ncnc(Cl)c12 [Compound 612, (1R,2S,3R,5R)-3-{4-chloro-5-ethenylpyrrolo[2,3-d]pyrimidin-7-yl}-5-[{{3-[(2-phenylethyl)amino]propyl}amino)methyl]cyclopentane-1,2-diol]",> 10000,> 1000,≤ 10
"CNc1ncnc2c1ccn2[C@@H]1C[C@H](CNCCC(=O)NCCc2ccccc2)[C@@H](O)[C@H]1O (racemic) [434 (306), 3-((((1R,2R,3S,4R)-2,3-dihydroxy-4-(4-(methylamino)-7H-pyrrolo[2,3-d]pyrimidin-7-yl)cyclopentyl)methyl)amino)-N-phenethylpropanamide and 3-((((1S,2R,3S,4R)-2,3-dihydroxy-4-(4-(methylamino)-7H-pyrrolo[2,3-d]pyrimidin-7-yl)cyclopentyl)methyl)amino)-N-phenethylpropanamide]",> 10000,> 1000,≤ 10
"Nc1ncnc2c1c(Br)cn2[C@@H]1C[C@H](C(=O)NC[C@H]2CCCNC2)[C@@H](O)[C@H]1O [453 (325), (1S,2R,3S,4R)-4-(4-Amino-5-bromo-7H-pyrrolo[2,3-d]pyrimidin-7-yl)-2,3-dihydroxy-N-(((S)-piperidin-3-yl)methyl) cyclopentane-1-carboxamide]",> 10000,100 to 1000,10 to 15
"CNc1ncnc2c1ccn2[C@@H]1C[C@H](COCC(=O)NCCc2ccccc2)[C@@H](O)[C@H]1O [689 (298), 2-(((1R,2R,3S,4R)-2,3-Dihydroxy-4-(4-(methylamino)-7H-pyrrolo[2,3-d]pyrimidin-7-yl)cyclopentyl)methoxy)-N-phenethylacetamide]",> 10000,> 1000,≤ 10
"CNc1ncnc2c1ccn2[C@@H]1O[C@H](CNCCCNCCc2ccccc2)[C@@H](O)[C@H]1O [309 (208), (2R,3R,45,5R)-2-(4-(methylamino)-7H-pyrrolo[2,3-d]pyrimidin-7-yl)-5-(((3-(phenethylamino)pronyl)amino)methyl) tetrahydrofuran-3.4-diol]",> 10000,> 1000,10 to 15
"CNc1ncnc2c1ccn2[C@@H]1C[C@H](CN2CCC23CNC3)[C@@H](O)[C@H]1O [445 (317), (1S,2R,3R,5R)-3-((1,6-Diazaspiro[3.3]heptan-1-yl)methyl)-5-(4-(methylamino)-7H-pyrrolo[2,3-d]pyrimidin-7-yl) cyclopentane-1,2-diol]",> 10000,> 1000,≤ 10
CNc1ncnc2c1ccn2[C@@H]1C[C@H](CNCCCNCCc2cccc(Oc3ccccc3)c2)[C@@H](O)[C@H]1O [287 (184)],1000 to 10000,100 to 1000,10 to 15
"CC1CCNc2ncnc3c2c1cn3[C@@H]1C[C@H](CN)[C@@H](O)[C@H]1O (stereo partly drawn) [Compound 629, (1S,2R,3R,5R)-3-(Aminomethyl)-5-(9-methyl-6,7,8,9-tetrahydro-2H-2,3,5,6-tetraazabenzo[cd]azulen-2-yl)cyclopentane-1,2-diol]",> 10000,> 1000,≤ 10
"CNc1ncnc2c1ccn2[C@@H]1C[C@H](CS(=O)(=O)CCCNCCc2ccccc2)[C@@H](O)[C@H]1O [429 (301), (1R,2S,3R,5S)-3-(4-(Methylamino)-7H-pyrrolo[2,3-d]pyrimidin-7-yl)-5-(((3-(phenethylamino)propyl)sulfonyl)methyl) cyclopentane-1,2-diol]",> 10000,> 1000,≤ 10
"CNc1ncnc2c1ccn2[C@@H]1C[C@H](COCCCNCCc2ccccc2)[C@@H](O)[C@H]1O [420 (291), (1R,2S,3R,5R)-3-(4-(methylamino)-7H-pyrrolo[2,3-d]pyrimidin-7-yl)-5-((3-(phenethylamino)propoxy)methyl) cyclopentane-1,2-diol]",> 10000,> 1000,≤ 10

# Second part, the molecule after the results:
IC50 (KMT9 [1]) [nM],Kd (KMT9 [2]) [nM],ΔTm at 500 µM (KMT9 [3]) [°C],Structure (SMILES)
1000 to 10000,10 to 100,15 to 20,"Nc1ncnc2c1c(-c1ccn(Cc3ccccc3)n1)cn2[C@@H]1C[C@H](C2CCNCC2)[C@@H](O)[C@H]1O [Compound 489, (1R,2S,3R,5R)-3-(4-amino-5-(1-benzyl-1H-pyrazol-3-yl)-7H-pyrrolo[2,3-d]pyrimidin-7-yl)-5-(piperidin-4-yl)cyclopentane-1,2-diol]"
1000 to 10000,100 to 1000,10 to 15,"O=S(=O)(c1ccccc1)n1ccc(-c2cn([C@@H]3C[C@H](CNCCCNCCc4ccccc4)[C@@H](O)[C@H]3O)c3ncncc23)n1 [Compound 614, (1S,2R,3R,5R)-3-(((3-(Phenethylamino)propyl)amino)methyl)-5-(5-(1-(phenylsulfonyl)-1H-pyrazol-3-yl)-7H-pyrrolo[2,3-d]pyrimidin-7-yl)cyclopentane-1,2-diol]"
100 to 1000,10 to 100,15 to 20,Nc1ncnc2c1c(Br)cn2[C@@H]1C[C@H](CNCCCNCCc2cccc(Oc3ccccc3)c2)[C@@H](O)[C@H]1O [457 (329)]
100 to 1000,10 to 100,15 to 20,"Nc1ncnc2c1c(Br)cn2[C@@H]1C[C@H](CN2CC(CNCCc3ccccc3)C2)[C@@H](O)[C@H]1O [484 (358), (1R,2S,3R,5R)-3-(4-Amino-5-bromo-7H-pyrrolo[2,3-d]pyrimidin-7-yl)-5-((3-((phenethylamino)methyl)azetidin-1-yl)methyl) cyclopentane-1,2-diol]"
1000 to 10000,10 to 100,15 to 20,"C=Cc1cn([C@@H]2C[C@H](CNCCCNCCc3cccc(Oc4ccccc4)c3)[C@@H](O)[C@H]2O)c2ncnc(N)c12 [462 (336), (1R,2S,3R,5R)-3-{4-Amino-5-ethenylpyrrolo[2,3-d]pyrimidin-7-yl}-5-{[(3-{[2-(3-phenoxyphenyl)ethyl]amino}propyl)amino]methyl}cyclopentane-1,2-diol]"
1000 to 10000,> 1000,≤ 10,"CN1CCC(c2cn([C@@H]3C[C@H](CNCCCNCCc4ccccc4)[C@@H](O)[C@H]3O)c3ncnc(N)c23)CC1 [480 (354), (1R,2S,3R,5R)-3-(4-Amino-5-(1-methylpiperidin-4-yl)-7H-pyrrolo[2,3-d]pyrimidin-7-yl)-5-(((3-(phenethylamino)propyl)amino)methyl) cyclopentane-1,2-diol]"
100 to 1000,100 to 1000,10 to 15,"Nc1ncnc2c1c(-c1ccncc1)cn2[C@@H]1C[C@H](CNCCCNCCc2ccccc2)[C@@H](O)[C@H]1O [470 (344), (1R,2S,3R,5R)-3-(4-Amino-5-(pyridin-4-yl)-7H-pyrrolo[2,3-d]pyrimidin-7-yl)-5-(((3-(phenethylamino)propyl)amino)methyl) cyclopentane-1,2-diol]"
100 to 1000,100 to 1000,10 to 15,"CNc1ncnc2c1ccn2[C@@H]1C[C@H](C(=O)NCCCNCCc2ccc(Oc3ccc(Cl)cc3)c(F)c2)[C@@H](O)[C@H]1O [355 (259), (1S,2R,3S,4R)—N-(3-((4-(4-chlorophenoxy)-3-fluorophenethyl)amino)propyl)-2,3-dihydroxy-4-(4-(methylamino)-7H-pyrrolo[2,3-a]pyrimidin-7-yl) cyclopentane-1-carboxamide]"
